{"source": "paper PMC13316043", "about": "“Structural basis of NSD2 degradation via targeted recruitment of SCF-FBXO22” (Nature Communications, 2026)", "key": {"[1]": {"biological_target": "T1, NSD2 (U2OS NSD2-HiBiT cells) (Homo sapiens, UniProt O96028)", "T1 construct": "RNPs were introduced into U2OS cells by electroporation; endogenous in cells; host or cells: U2OS NSD2-HiBiT clone P112 (CRISPR knock-in)", "T1 sequence (O96028 1-1365)": "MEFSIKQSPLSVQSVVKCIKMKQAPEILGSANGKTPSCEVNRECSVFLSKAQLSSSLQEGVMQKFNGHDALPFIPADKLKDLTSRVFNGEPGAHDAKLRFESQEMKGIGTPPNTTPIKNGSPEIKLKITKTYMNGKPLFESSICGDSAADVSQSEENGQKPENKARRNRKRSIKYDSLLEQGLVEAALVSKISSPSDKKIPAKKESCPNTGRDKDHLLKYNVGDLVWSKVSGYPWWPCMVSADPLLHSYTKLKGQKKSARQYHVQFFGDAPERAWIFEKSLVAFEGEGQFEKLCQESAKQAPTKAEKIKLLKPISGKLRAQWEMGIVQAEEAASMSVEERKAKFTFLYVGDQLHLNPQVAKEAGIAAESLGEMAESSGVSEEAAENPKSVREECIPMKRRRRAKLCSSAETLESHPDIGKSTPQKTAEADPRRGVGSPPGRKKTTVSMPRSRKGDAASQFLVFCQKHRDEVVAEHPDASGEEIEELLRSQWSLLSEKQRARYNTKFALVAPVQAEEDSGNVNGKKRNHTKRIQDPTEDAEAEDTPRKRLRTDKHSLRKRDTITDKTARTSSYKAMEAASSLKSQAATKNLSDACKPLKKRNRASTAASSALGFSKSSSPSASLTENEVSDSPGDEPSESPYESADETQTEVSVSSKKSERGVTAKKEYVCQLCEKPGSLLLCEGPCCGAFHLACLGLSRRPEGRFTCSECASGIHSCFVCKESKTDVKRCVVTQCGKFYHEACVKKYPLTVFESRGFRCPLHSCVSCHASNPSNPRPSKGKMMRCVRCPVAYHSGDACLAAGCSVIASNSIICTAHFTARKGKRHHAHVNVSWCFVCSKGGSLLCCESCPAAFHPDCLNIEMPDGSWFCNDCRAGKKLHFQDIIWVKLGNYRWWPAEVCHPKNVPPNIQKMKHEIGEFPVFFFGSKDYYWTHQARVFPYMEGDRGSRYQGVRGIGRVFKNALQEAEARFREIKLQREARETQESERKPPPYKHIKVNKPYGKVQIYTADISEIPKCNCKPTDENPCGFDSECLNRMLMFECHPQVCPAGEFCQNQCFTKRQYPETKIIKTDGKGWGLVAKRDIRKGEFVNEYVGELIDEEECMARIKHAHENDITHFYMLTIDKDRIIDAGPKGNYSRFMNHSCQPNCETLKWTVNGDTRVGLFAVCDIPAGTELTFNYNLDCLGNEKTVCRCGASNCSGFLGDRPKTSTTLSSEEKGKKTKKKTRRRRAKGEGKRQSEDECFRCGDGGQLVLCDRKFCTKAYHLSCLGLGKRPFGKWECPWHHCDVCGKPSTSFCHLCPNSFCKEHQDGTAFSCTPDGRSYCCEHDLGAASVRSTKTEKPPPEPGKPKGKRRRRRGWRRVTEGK", "experiment": "NSD2 HiBiT degradation assay", "format": "cell-based", "settings": "U2OS NSD2-HiBit cells, 1 µM, 6 h", "excerpt": "The NSD2 genomic sequence was obtained from the UCSC genome browser and used to design sgRNAs to introduce HiBiT tags at either the 5’ or 3’ ends of the gene. sgRNA were assembled into RNPs using TrueCut Cas9 Protein v2 (Invitrogen, Cat#A36497), an sgRNA crRNA:tracrRNA duplex (below; IDT) and ssODN (below; IDT). RNPs were introduced into U2OS cells by electroporation using a Neon XT electroporation system (1750 V, 10 ms, 3 pulses) in R-buffer, using Thermo Fisher Neon transfection kit (Cat# MPK1025K) and according to the manufacturer's protocol. After plating for recovery for four days, single cell clones limited dilution cloning. Single cell clones that grew out were identified as containing integrated HiBiT tags on NSD2 by performing HiBiT assays using HiBiT lytic assay (Promega: N3040) and read on a plate reader. Clones were further confirmed by PCR analysis.\nTo test compounds for NSD2 degradation, a compound plate was prepared by diluting compounds in DMSO into cell media in a 384-deep-well plate (Revvity). Then, 6 µL of the diluted compounds were transferred into the well of the 384-well assay plate (Corning). 24 µL of the NSD2 HiBiT U2OS P112 cells or parental U2OS cells (3000 cells/well) were added to each well to make a final volume of 30 µL with a 0.1% final DMSO concentration. For multiple time points, multiple assay plates were made and incubated in the incubator at 37 °C in 5% CO2 for 3/6/12/24/48 hrs. 10 min before the reading, the assay plate and the Nano-Glo HiBiT Lytic Detection System (Promega) were brought to room temperature. The HiBiT lytic reagent master mix was prepared according to the product instructions and added to the assay plate. The plate was then incubated on an orbital shaker for 5 min at room temperature, equilibrated for 10 min, and then read using the GloMax luminometer (Promega) for luminescence detection. Compound treatment was normalized to the DMSO control with the background subtraction using the parental U2OS cell line as the background control, plated alongside the HiBiT U2OS P112 cells. The data and graphs were then analyzed and generated using GraphPad Prism (v 10.4.1). DC50 and Dmax were calculated by fitting the data to a non-linear regression curve."}, "[2]": {"biological_target": "T2, *NSD2 PWWP1 ubiquitination by SCF^FBXO22 (Homo sapiens, UniProt O96028+Q8NEZ5)", "T2 construct": "fluorescently labeled NSD2-PWWP1 (*NSD2-PWWP1); the FIST domain of FBXO22 rather than full-length FBXO22 that is used in the ubiquitination; 6xHis (N, cleaved yes); GST (cleaved yes); made in house; host or cells: SKP1-FBXO22: Trichoplusia ni insect cells; NSD2 PWWP1 and NEDD8: E. coli BL21(DE3)-CodonPlus RIL", "T2 sequence (Q8NEZ5 whole entry, one chain of several, the tested form may be a part)": "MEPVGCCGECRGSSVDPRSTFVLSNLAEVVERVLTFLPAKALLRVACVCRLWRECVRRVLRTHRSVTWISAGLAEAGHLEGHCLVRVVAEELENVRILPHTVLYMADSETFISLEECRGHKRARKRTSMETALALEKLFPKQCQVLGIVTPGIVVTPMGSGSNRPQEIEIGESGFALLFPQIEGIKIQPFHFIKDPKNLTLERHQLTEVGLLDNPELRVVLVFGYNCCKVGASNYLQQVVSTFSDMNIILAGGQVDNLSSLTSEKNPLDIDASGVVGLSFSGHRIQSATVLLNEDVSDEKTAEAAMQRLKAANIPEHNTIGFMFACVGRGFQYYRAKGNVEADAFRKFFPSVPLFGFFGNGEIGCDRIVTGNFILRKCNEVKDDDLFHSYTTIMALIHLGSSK", "experiment": "Ubiquitination assay using purified components", "format": "biochemical", "settings": "compound at 0.5 µM, fluorescent SDS-PAGE", "experimental": "Ubiquitination assays were performed by mixing 2 separate solutions. First, SKP1-FBXO22, fluorescently labeled NSD2-PWWP1 (*NSD2-PWWP1), and compounds, unless otherwise indicated, were pre-incubated for 15 min on ice. Second, UBA1, UBE2R2, UBE2D2 or UBE2L3 and ARIH1, NEDD8 ~ CUL1-RBX1, MgATP, and reaction buffer (20 mM HEPES pH 8, 200 mM NaCl, 0.5 mg/mL bovine serum albumin (BSA)) were combined on ice to generate a master mix. A standard volume of master mix was added to each reaction tube, and Ub was added to initiate the ubiquitination reaction containing 100µM Ub, 1µM SKP1-FBXO22, 0.5µM *NSD2 PWWP1, 0.5µM compound, 0.1µM UBA1, 1µM UBE2R2, 1µM UBE2D2 or 1µM UBE2L3, and 1µM ARIH1, 1µM NEDD8~CUL1-RBX1, and 5mM MgATP in reaction buffer. Ubiquitination assays comparing *NSD2 PWWP1 mutants were performed similarly, except that SKP1-FBXO22, *NSD2 PWWP1 mutants, and compounds were not incubated separately prior to the start of the reaction. The reactions proceeded at room temperature for 15 min until they were quenched by adding SDS Loading Buffer. The ubiquitinated *NSD2 PWWP1 was visualized by subjecting the reactions to SDS-PAGE and imaging using the Amersham Typhoon."}, "BACH1": {"test_system": "BACH1", "experiment": "Western blot of BACH1 in HEK293T cells", "format": "cell-based, human", "experimental": "(§1) HEK293T and U2OS were obtained from ATCC and cultured in high-glucose-containing Dulbecco’s Modified Eagle’s Medium (DMEM; Gibco; cat. #11995) supplemented with 10% fetal bovine serum (VWR) and 1% penicillin/streptomycin (Gibco). Cells were treated with either UNC10415667, UNC12149, UNC12567, hemin (Sigma; cat. #H9039), or DMSO control for the indicated times and analyzed by western blot using standard procedures. Briefly, cells were lysed on ice for 15 min in NETN lysis buffer (20 mM Tris pH 8.0, 100 mM NaCl, 0.5 mM EDTA, 0.5% NP40) supplemented with 10 µg/mL aprotinin, 10 µg/mL leupeptin, 10 µg/mL pepstatin A, 1 mM sodium orthovanadate, 1 mM sodium fluoride, and 1 mM AEBSF (4-[two aminoethyl] benzenesulfonyl fluoride). Cell lysates were centrifuged at 20,000×g in a benchtop microcentrifuge at 4 °C for 10 min. Protein concentration was determined by Bradford assay (Bio-Rad; cat. #5000006). Protein concentration was normalized using Laemmli buffer. Samples were heated for 5 min at 95°C in a dry water-bath. Samples were separated on TGX stain free gels (Bio-Rad) transferred to nitrocellulose membrane and blocked in 5% non-fat dry milk (Biorad; cat. #1706404) diluted in 1x TBS-T (137 mM NaCl, 2.7 mM KCl, 25 mM Tris pH 7.6, 1% Tween-20). Primary antibody incubations (Anti-NSD2 (Abcam; Cat# ab75359; Lot# 1093214-1; 1:1000 dilution), Anti-BACH1 (Fortis Life Sciences; Cat# A303-805A; Lot# 1; 1:1000 dilution), and Anti-GAPDH (Santa Cruz Biotechnology; Cat# sc-47724; Lot# C1023; 1:1000 dilution)) were performed overnight at 4 °C. Secondary antibodies (Peroxidase AffiniPure Goat Anti-Rabbit IgG (H + L) (Jackson Immuno; Cat# 111-035-003; 1:5000 dilution) and Peroxidase AffiniPure Goat Anti-Mouse IgG (H + L) (Jackson Immuno; Cat# 115-035-003; 1:5000 dilution)) were incubated for 1 h at room temperature. Blots were developed by chemiluminescence using Pierce ECL (Thermo Fisher Scientific; cat. #32106)."}, "[3]": {"test_system": "NSD2 and other known FBXO22 substrates", "settings": "prior work; cited from earlier work"}, "[4]": {"biological_target": "T3, NSD2 (long and short forms) (Homo sapiens, UniProt O96028)", "T3 sequence (O96028 211-350 limits assumed)": "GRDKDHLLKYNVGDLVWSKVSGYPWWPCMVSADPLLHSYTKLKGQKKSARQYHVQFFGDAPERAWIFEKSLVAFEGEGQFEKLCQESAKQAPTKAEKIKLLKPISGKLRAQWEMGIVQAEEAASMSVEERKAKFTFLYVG", "experiment": "Western blot of NSD2 in HEK293T cells", "format": "cell-based", "settings": "10 µM, 6 hrs, vs DMSO", "experimental": "as §1"}, "[5]": {"test_system": "FBXO22-NSD2 PWWP1 ternary complex", "experiment": "Size-exclusion chromatography to monitor ternary complex formation", "format": "binding, human", "experimental": "Formation of the SCF^FBXO22-UNC10088-NSD2 PWWP1 and SCF^FBXO22-UNC10415667-NSD2 PWWP1 ternary complexes was performed by incubating SKP1-FBXO22, CUL1-RBX1, NSD2 PWWP1, and UNC10088 or UNC10415667 at a 1:1:1:1 molar ratio for 4 h on ice. The SCF^FBXO22-UNC10088-NSD2 PWWP1-BACH1 BTB ternary complex was formed by incubating SKP1-FBXO22, CUL1-RBX1, NSD2 PWWP1, UNC10088, and BACH1 BTB at a 1:1:1:1:1.5 molar ratio for 1 h on ice. The incubated sample was loaded onto a Superdex 200 Increase SD200 column (Cytiva), equilibrated with 20 mM HEPES pH 8, 200 mM NaCl, 1 mM DTT, for size-exclusion chromatography, and fractions containing all subunits of the SCF^FBXO22-Degrader-NSD2 PWWP1 complex were pooled and concentrated. The SCF^FBXO22-UNC10088-NSD2 PWWP1, SCF^FBXO22-UNC10415667-NSD2 PWWP1, and SCF^FBXO22-UNC10088-NSD2 PWWP1-BACH1 BTB complexes were concentrated to 33 µM, 10.9 µM, and 4.1 µM, respectively, and flash frozen. […] In contrast, only the PWWP1 and BTB domains of NSD2 and BACH1, respectively, were used.\nFBXO22 WT and variants were incubated on ice with NSD2 PWWP1 and either UNC10088 or UNC10415667 at 5 µM. After 1 h, the samples were centrifuged at 16,060 x g for 10 min at 4 °C. Each sample was examined for C326- and compound-dependent complex formation by comparing the SEC chromatograms and Coomassie-stained SDS-PAGE gels. […] These experiments were performed using a Superdex 200 Increase SD200 column (Cytiva) and 20 mM HEPES pH 8, 200 mM NaCl, 1 mM DTT."}}}
{"molecule": "O=Cc1ccc(CC(=O)N2CCc3cc(NC(=O)c4ccc(CN(C(=O)c5ccc6c(c5)OCC(=O)N6)C5CC5)cc4)ccc3C2)cc1", "note": "[UNC10415668]", "values": [{"measurement": "reduction of NSD2 levels", "setting": "[1]", "value": "more modest effect"}, {"measurement": "SCF^FBXO22-dependent ubiquitination of *NSD2 PWWP1", "setting": "[2]", "value": "able to induce polyubiquitination"}]}
{"molecule": "Hemin [reference compound]", "values": [{"measurement": "BACH1 degradation by immunoblot", "setting": "BACH1; 20 µM Hemin", "value": "degradation was promoted"}]}
{"molecule": "NCCCCCC(=O)N1CCc2cc(NC(=O)c3ccc(CN(C(=O)c4ccc5c(c4)OCC(=O)N5)C4CC4)cc3)ccc2C1", "note": "[UNC8732]", "values": [{"measurement": "SCF^FBXO22-dependent ubiquitination of *NSD2 PWWP1", "setting": "[2]", "value": "no effect"}, {"measurement": "selectivity of degradation in global proteomics", "setting": "[3]", "value": "specifically degrades NSD2"}]}
{"molecule": "CC(C)N(Cc1ccc(C(=O)Nc2ccc3c(c2)CCN(C(=O)c2ccc(C=O)cc2)C3)cc1)C(=O)c1ccc2c(c1)OCC(=O)N2", "note": "[UNC12567]", "values": [{"measurement": "NSD2 levels by immunoblot", "setting": "[4]", "value": "unchanged"}, {"measurement": "BACH1 levels by immunoblot", "setting": "BACH1; 10 µM, 6 hrs", "value": "unchanged"}, {"measurement": "ternary complex formation between FBXO22 and NSD2 PWWP1 by SEC", "setting": "[5]", "value": "did not support ternary complex formation"}]}
